Test results taken from patent US4089947A, “Antibiotic compositions containing validamycin compounds” (priority 1976, dated 1978).
Where “and” joins values, the source holds several entries; their conditions need not be identical. Equal entries are not always repeated.

Experiments:
Rhyzoctonia solani = assay: Cucumber damping-off control test; type: in vivo; settings: 14 days after sowing
Description: Cucumber damping-off control test
Rhyzoctonia solani is cultured on barley medium at 28° C for 5 days. A field soil sample is packed into clay pots 9 cm in diameter, which are then sterilized with steam. The chaff inoculum is evenly worked into the cover soil of each pot to the depth of about 3 cm, at the rate of 2g./pot. The pots are kept in an incubation chamber at 28° C for 4 days and, then, transferred to a greenhouse.
As per Experiment 1, the drug is sprayed onto the soil surface at the rate of 30 ml./6 pots/group.
Healthy seeds of cucumber (variety: Yonyo) are sown by burial in the pots immediately after treatment, at the rate of 10 seeds/pot. The pots are then placed in a greenhouse at 32°-28° C.
14 days after sowing, the results are evaluated against the following coefficients of lesion and the degrees of damage are calculated.
Coefficients of lesion (I)
0.5 : Root hairs alone are slightly affected.
1 : Aerial portions near soil surface and roots affected.
2 : Early stage of damping-off.
3 : Affected at germination; growth inhibited.
Degree of damage (%) =(Σ(nI))/3 × N × 100 wherein n means the number of samples corresponding to each coefficient of lesion and N means the total number of plants.

Pellicularia sasakii [1] = assay: Abnormal branching of hyphal tips of Pellicularia sasakii (agar dilution bioassay); type: cell-based; settings: for highest dilution factor that causes an abnormal branching at the hyphal tips of Pellicularia sasakii: 1 mg./ml. aqueous solution as stock solution; for dilution unit (maximum dilution which produces abnormal branching): aqueous solution containing 1000 γ/ml., 27° C for 40 hours
Description: Therefore, the bioassay of the antibiotics should be conducted in the following manner.
Pellicularia sasakii is used as the test organism employing plain agar as the assay medium. The test organism is cultivated on a potato (sucrose) agar slant for 2 to 5 days, and the resulting culture is used to inoculate at the center of a 9-cm Petri dish plate of modified Pfeffer's medium, which is then incubated at 27° C for 2 days. By the end of this period, the mycelium will have spread over the entire surface of the plate. The growth on the circumference about 3 to 3.5 cm in radius from the center is cut out with a cork borer and the agar disc thus obtained is used as the inoculum.
A serial dilution series of agar plants containing varying concentrations of the antibiotics is prepared in the same manner as a conventional agar dilution method.
A glass disc of 8 mm in diameter and about 0.2 mm thick, is placed in the center of each of the aforementioned dilution series of agar plates, and the agar disc inoculum is then placed on the glass disc. After incubation at 27° C for 40 hours, the result is evaluated. […] The term dilution unit means the value of maximum dilution which produces such abnormal branching.
Modified Pfeffer's medium, which is employed in this assay, has the following composition.
Before using the medium, the following vitamins are added in the specified amounts. (Weight per ml. of medium)
When a 1 mg./ml. aqueous solution of each of validamycins C, D, E and F and validoxylamines A and B is used as a stock solution, the highest dilution factor that causes an abnormal branching at the hyphal tips of Pellicularia sasakii is as follows.

plant diseases = assay: Control of plant diseases (general statement); type: in vivo; settings: for controlling effect against plant diseases, for example, the sheath blight of the rice plant: application in vivo; for effectiveness against sheath blight and stem rot of rice plant, damping off and sclerotial blight of vegetables, flowering plants and lumber seedlings: in vivo
Solubilities = type: physicochemical; settings: methanol
Oryzias latipes = assay: Acute toxicity for Oryzias latipes (median lethal dose, 48 hours); type: in vivo; settings: leaving in water solution
Description: (§1) The toxicity of the antibiotics can be confirmed, for instance, by administering each of the validamycins C, D, E and F, and validoxylamines A and B, intravenously to mice and measuring the LD50 value, or by measuring the median lethal dose (48 hours) for Oryzias latipes.

Pellicularia sasakii [2] = assay: Rice sheath blight control test, preventive (prophylactic); type: in vivo; settings: 10 days after application, untreated 34.4cm
Description: (§2) Rice sheath blight control test
(§3) Rice Plants (variety: Kinmaze) are planted in earthen pots 9 cm in diameter, 3 stocks per pot. Seedlings 80 days after potting are tested and 6 pots each of them are grouped.
(§4) Pathogenic fungi Pellicularia sasakii is cultivated on a plate of potato infusion-sugar-agar at 30°C for 48 hours, and its agar disc 10mm in diameter is cut out from a peripheral colony. The disc is inserted into the inside space of the leaf sheath near the soil surface, a disc per stem. The pots are kept in a PVC shelter at the temperature of 32°-25° C and the relative humidity of 100-70%. Inoculation is carried out immediately after the applied drug has been air-dried in the prophylactic test, and 3 days before application in the remedial test.
(§5) 10 days after application of the drug, the length of each stem from ground level to the upper edge of the lesion is directly measured.

[3] = tested on: men and beasts, as well as to fish; assay: Harmlessness to men, beasts and fish (general statement); settings: in vivo
useful plants = assay: Effect on useful plants (general statement); type: in vivo; settings: even when applied in a high concentration
Cladosporium fulvum = assay: Tomato leaf mold control test; type: in vivo; settings: 50 ppm; 14 days after inoculation; inoculated 3 days before application
Description: Tomato leaf mold control test
Tomato plants (variety: ponterosa) are planted in 12 cm in diameter pots, one plant per pot. The seedlings 50 days after potting are used, 6 pots/group.
Applied at the rate of 100 ml./6 pots/group as per Experiment 1.
Pathogenic fungi Cladosporium fulvum is cultured on a potato infusion-sucrose plate at 20° C for 14 days, and a suspension of conidia (5×10^5 /ml.) is prepared from the culture.
The plants are spray-inoculated with the suspension 3 days before application of the drug, at the rate of 5 ml. per pot. The pots are kept in an inoculation chamber at 25° C for 24 hours, and, then they are transferred to a greenhouse.
14 days after inoculation, the specific ratio of the average area of lesion in the leaves is measured.

bacteria and fungi = assay: Antimicrobial potency / growth inhibition in vitro; type: cell-based
[4] = pKa' (neutralization, in aqueous solution); type: physicochemical
Source text: 3. The elementary analysis, the molecular formulas as calculated therefrom, pKa' values, neutralization equivalents (molecular weight) and optical rotation values are given in Table 2.

Pellicularia sasakii [5] = assay: Rice sheath blight control test, remedial; type: in vivo; settings: inoculation 3 days before application, untreated 34.4cm
Description: as §2, §3, §4, §5

Mice = assay: Acute toxicity in mice, intravenous injection; type: in vivo
Description: as §1

O=[N+]([O-])c1c(Cl)c(Cl)c(Cl)c(Cl)c1Cl [Pentachloronitrobenzene, reference compound]
Degree of damage (Rhyzoctonia solani; 5 ppm): 100%
Degree of damage (Rhyzoctonia solani; 20 ppm): 100%
Degree of damage (Rhyzoctonia solani; 80 ppm): 100%

OCC1CC(NC2C=C(COC3OC(CO)C(O)C(O)C3O)C(O)C(O)C2O)C(O)C(O)C1OC1OC(CO)C(O)C(O)C1O (stereo not shown) [Validamycin C]
highest dilution factor that causes an abnormal branching at the hyphal tips of Pellicularia sasakii (Pellicularia sasakii [1]): 100
dilution unit (maximum dilution which produces abnormal branching) (Pellicularia sasakii [1]): 100 dilution unit/ml.
controlling effect against plant diseases, for example, the sheath blight of the rice plant (plant diseases): excellent controlling effect
effectiveness against sheath blight and stem rot of rice plant, damping off and sclerotial blight of vegetables, flowering plants and lumber seedlings (plant diseases): very effective
Degree of damage (Rhyzoctonia solani; 5 ppm): 100%
Degree of damage (Rhyzoctonia solani; 20 ppm): 84%
Degree of damage (Rhyzoctonia solani; 80 ppm): 0%
solubility in methanol (Solubilities): more sparingly soluble
TLm (Oryzias latipes): > 1000 ppm
Preventive effect (percent of the average length of lesion/stem per control untreated) (Pellicularia sasakii [2]; 3 ppm): 46%
Preventive effect (percent of the average length of lesion/stem per control untreated) (Pellicularia sasakii [2]; 10 ppm): 34%
Preventive effect (percent of the average length of lesion/stem per control untreated) (Pellicularia sasakii [2]; 30 ppm): 4%
Preventive effect (percent of the average length of lesion/stem per control untreated) (Pellicularia sasakii [2]; 100 ppm): 1%
Preventive effect (percent of the average length of lesion/stem per control untreated) (Pellicularia sasakii [2]; 300 ppm): 0%
harmfulness to men and beasts, as well as to fish [3]: substantially harmless
effect on germination, growth, yield and other features of useful plants (useful plants): do not substantially affect
Specific area of lesion (Cladosporium fulvum): 18%
antimicrobial potency / growth inhibition of bacteria and fungi in vitro (bacteria and fungi): no antimicrobial potency
pKa' [4]: 6.0 ± 0.2
Remedial effect (percent of the average length of lesion/stem per control untreated) (Pellicularia sasakii [5]; 3 ppm): 68%
Remedial effect (percent of the average length of lesion/stem per control untreated) (Pellicularia sasakii [5]; 10 ppm): 22%
Remedial effect (percent of the average length of lesion/stem per control untreated) (Pellicularia sasakii [5]; 30 ppm): 12%
Remedial effect (percent of the average length of lesion/stem per control untreated) (Pellicularia sasakii [5]; 100 ppm): 10%
Remedial effect (percent of the average length of lesion/stem per control untreated) (Pellicularia sasakii [5]; 300 ppm): 7%
LD50 (Mice): > 2000 mg/kg

OCC1=C[C@H](N[C@H]2C[C@H](CO)[C@@H](O[C@@H]3O[C@@H](CO)[C@@H](O[C@H]4O[C@@H](CO)[C@@H](O)[C@H](O)[C@H]4O)[C@H](O)[C@H]3O)[C@@H](O)[C@H]2O)[C@@H](O)[C@H](O)[C@H]1O [Validamycin E]
highest dilution factor that causes an abnormal branching at the hyphal tips of Pellicularia sasakii (Pellicularia sasakii [1]): 70,000 - 80,000
dilution unit (maximum dilution which produces abnormal branching) (Pellicularia sasakii [1]): 80000 dilution unit/ml.
controlling effect against plant diseases, for example, the sheath blight of the rice plant (plant diseases): excellent controlling effect
effectiveness against sheath blight and stem rot of rice plant, damping off and sclerotial blight of vegetables, flowering plants and lumber seedlings (plant diseases): very effective
Degree of damage (Rhyzoctonia solani; 5 ppm): 10%
Degree of damage (Rhyzoctonia solani; 20 ppm): 0%
Degree of damage (Rhyzoctonia solani; 80 ppm): 0%
solubility in methanol (Solubilities): more sparingly soluble
TLm (Oryzias latipes): > 1000 ppm
Preventive effect (percent of the average length of lesion/stem per control untreated) (Pellicularia sasakii [2]; 3 ppm): 3%
Preventive effect (percent of the average length of lesion/stem per control untreated) (Pellicularia sasakii [2]; 10 ppm): 2%
Preventive effect (percent of the average length of lesion/stem per control untreated) (Pellicularia sasakii [2]; 30 ppm): 0%
Preventive effect (percent of the average length of lesion/stem per control untreated) (Pellicularia sasakii [2]; 100 ppm): 0%
Preventive effect (percent of the average length of lesion/stem per control untreated) (Pellicularia sasakii [2]; 300 ppm): 0%
harmfulness to men and beasts, as well as to fish [3]: substantially harmless
effect on germination, growth, yield and other features of useful plants (useful plants): do not substantially affect
Specific area of lesion (Cladosporium fulvum): 2%
antimicrobial potency / growth inhibition of bacteria and fungi in vitro (bacteria and fungi): no antimicrobial potency
pKa' [4]: 6.1 ± 0.2
Remedial effect (percent of the average length of lesion/stem per control untreated) (Pellicularia sasakii [5]; 1 ppm): 41%
Remedial effect (percent of the average length of lesion/stem per control untreated) (Pellicularia sasakii [5]; 3 ppm): 14%
Remedial effect (percent of the average length of lesion/stem per control untreated) (Pellicularia sasakii [5]; 10 ppm): 12%
Remedial effect (percent of the average length of lesion/stem per control untreated) (Pellicularia sasakii [5]; 30 ppm): 11%
Remedial effect (percent of the average length of lesion/stem per control untreated) (Pellicularia sasakii [5]; 100 ppm): 5%
Remedial effect (percent of the average length of lesion/stem per control untreated) (Pellicularia sasakii [5]; 300 ppm): 3%
LD50 (Mice): > 2000 mg/kg

OCC1=C[C@@H](N[C@@H]2C[C@@H](CO[C@@H]3O[C@H](CO)[C@@H](O)[C@H](O)[C@H]3O)[C@H](O)[C@@H](O)[C@H]2O)[C@H](O)[C@H](O)[C@H]1O [Validamycin D]
highest dilution factor that causes an abnormal branching at the hyphal tips of Pellicularia sasakii (Pellicularia sasakii [1]): 10
dilution unit (maximum dilution which produces abnormal branching) (Pellicularia sasakii [1]): 10 dilution unit/ml.
controlling effect against plant diseases, for example, the sheath blight of the rice plant (plant diseases): excellent controlling effect
effectiveness against sheath blight and stem rot of rice plant, damping off and sclerotial blight of vegetables, flowering plants and lumber seedlings (plant diseases): very effective
Degree of damage (Rhyzoctonia solani; 5 ppm): 100%
Degree of damage (Rhyzoctonia solani; 20 ppm): 93%
Degree of damage (Rhyzoctonia solani; 80 ppm): 0%
solubility in methanol (Solubilities): soluble
TLm (Oryzias latipes): > 1000 ppm
Preventive effect (percent of the average length of lesion/stem per control untreated) (Pellicularia sasakii [2]; 3 ppm): 28%
Preventive effect (percent of the average length of lesion/stem per control untreated) (Pellicularia sasakii [2]; 10 ppm): 5%
Preventive effect (percent of the average length of lesion/stem per control untreated) (Pellicularia sasakii [2]; 30 ppm): 1%
Preventive effect (percent of the average length of lesion/stem per control untreated) (Pellicularia sasakii [2]; 100 ppm): 0%
Preventive effect (percent of the average length of lesion/stem per control untreated) (Pellicularia sasakii [2]; 300 ppm): 0%
harmfulness to men and beasts, as well as to fish [3]: substantially harmless
effect on germination, growth, yield and other features of useful plants (useful plants): do not substantially affect
Specific area of lesion (Cladosporium fulvum): 18% and 25%
antimicrobial potency / growth inhibition of bacteria and fungi in vitro (bacteria and fungi): no antimicrobial potency
pKa' [4]: 6.0 ± 0.2
Remedial effect (percent of the average length of lesion/stem per control untreated) (Pellicularia sasakii [5]; 10 ppm): 99%
Remedial effect (percent of the average length of lesion/stem per control untreated) (Pellicularia sasakii [5]; 30 ppm): 20%
Remedial effect (percent of the average length of lesion/stem per control untreated) (Pellicularia sasakii [5]; 100 ppm): 11%
Remedial effect (percent of the average length of lesion/stem per control untreated) (Pellicularia sasakii [5]; 300 ppm): 8%
LD50 (Mice): > 2000 mg/kg

Methyl arsonic acid ammonium complex salt [MAFA, reference compound]
Preventive effect (percent of the average length of lesion/stem per control untreated) (Pellicularia sasakii [2]; 3 ppm): 76%
Preventive effect (percent of the average length of lesion/stem per control untreated) (Pellicularia sasakii [2]; 10 ppm): 51%
Preventive effect (percent of the average length of lesion/stem per control untreated) (Pellicularia sasakii [2]; 30 ppm): 0%
Preventive effect (percent of the average length of lesion/stem per control untreated) (Pellicularia sasakii [2]; 100 ppm): 0%
Preventive effect (percent of the average length of lesion/stem per control untreated) (Pellicularia sasakii [2]; 300 ppm): 0%
Remedial effect (percent of the average length of lesion/stem per control untreated) (Pellicularia sasakii [5]; 3 ppm): 89%
Remedial effect (percent of the average length of lesion/stem per control untreated) (Pellicularia sasakii [5]; 10 ppm): 30%
Remedial effect (percent of the average length of lesion/stem per control untreated) (Pellicularia sasakii [5]; 30 ppm): 15%
Remedial effect (percent of the average length of lesion/stem per control untreated) (Pellicularia sasakii [5]; 100 ppm): 13%
Remedial effect (percent of the average length of lesion/stem per control untreated) (Pellicularia sasakii [5]; 300 ppm): 10%
